Data: patent US10195212B2, “Glucocorticoid-loaded nanoparticles for prevention of corneal allograft rejection and neovascularization” (The Johns Hopkins University, priority 2014, dated 2019)
Counter-ions that a name gives are not always drawn.

Tests used:
[1] = hydrocortisone = 1; cited from earlier work
[2] = In vivo ocular DSP levels after SC injection ([3H]-labeled DSP); design: species or system Sprague Dawley rat
Experimental: Nanoparticles were suspended in saline at 20 μCi/mL. […] 40 μL (˜0.8 μCi per eye) of same formulation was injected to both eyes of the same animal (Sprague Dawley rat). At the indicated time intervals, 2 h, 1 day, 3 day, 5 day and 7 day after injection, the rats were anesthetized by intramuscular injection of ketamine/xylazine solution. The animal was sacrificed after collecting two drops of blood from the tail vein.
The eye ball with conjunctiva tissue was carefully removed from rats and rinsed with PBS, dried by Kimwipe tissue. The anterior chamber humor, cornea, vitreous, retina and the remaining eye ball tissue were carefully dissected and collected. Both cornea and retina tissues were rinsed with PBS and dried with Kimwipe tissue. All the samples were weighed, dissolved with 2 mL of Solvable by incubation at 50° C. overnight. Blood samples were bleached with 0.2 ml H2O2 and 20 μL, 0.5M EDTA. 10 ml […] scintillation medium was added before counting the radioactivity in a scintillation counter. The results were expressed as a percentage of the injected dose and are the mean±sd of four eyes (2 animals) per data point. […] Total percentage of injected dose at the periocular tissue and the radioactivity per mg (or mL) of tissue were calculated.
Fifty μL (˜0.8 per eye) of the same formulation was administered to both eyes of the same animal (Sprague Dawley rat) through SC injection. At POD14, the rats under anesthesia were sacrificed after collecting two drops of blood from the tail vein. The aqueous, vitreous, and the remaining ocular tissues containing injection sites were carefully dissected and collected. All the samples were weighed and then dissolved with 2 mL of Solvable (Perkin Elmer, Waltham, Mass.) by incubation at 50° C. overnight. Blood samples were bleached with 0.2 mL H2O2 and 20 μL 0.5M EDTA. Ten milliliters of Ultima gold scintillation medium (Perkin Elmer, Waltham, Mass.) was added before counting the radioactivity in a scintillation counter (Perkin Elmer, Waltham, Mass.). The results were expressed as a percentage of the injected dose and are the mean±standard deviation (SD) of four eyes per data point. […] The total percentage of the injected dose at the injection sites and the radioactivity per mg of tissue or mL of blood were calculated.

[3] = test system: transplanted corneal grafts; assay: Corneal allograft rejection after penetrating keratoplasty, weekly SC injection; assay type: in vivo, Lewis rats; details: for survival rate of cornea grafts: weekly SC 50 μL at 1 mg DSP/mL
Experimental: All procedures performed with rats were approved by the Johns Hopkins University Animal Care and Use Committee. The Brown-Norway donor rats were sacrificed and the central corneal button of both eyes were removed with a 4.0-mm trephine and kept in physiological solution ready for use. The surgery was performed by a corneal surgeon (QP) under an operating microscope. The cornea recipient Lewis rats were anesthetized with an intramuscular injection of a mixture of Ketamine (80 mg/kg) and Xylazine (8 mg/kg). Repeated instillations of 0.5% tropicamide eye drops were used on Lewis rats for total pupil dilation before surgery. A paracentesis was performed before trephinization, and the anterior chamber was filled with hyaluronic acid. The corneal buttons were removed from the receptor Lewis rats with a 3.5-mm trephine. The donor corneal button was sutured to receptor cornea with 8 suture points.
All groups of animals were undertaken same treatment once every week until the failure of grafts or the end point of study (9 week).
The clinical observations with a slit lamp microscope were performed by two ophthalmologists (QP and LT) on post-operational (PO) 2 week for group 1 and group 2, PO 4 week for group 3 and PO 9 week for group 4. Three parameters were evaluated for the examination of the corneal grafts (cornea transparency, edema and neovascularization). The scoring for the parameters is presented below.
Intraocular pressure was monitored at PO 2 day, 1 week, 2 week, 4 week, 6 week, 8 week and 9 week after the surgery. IOP recorded for each eye is the average of three successful measurements. Animals at the end time points were sacrificed by CO2 and the eyes with PK surgery were enucleated. Eye tissues were fixed with 10% formalin for 24 h before embedding in paraffin. Sections (5 μm) were cut from through the direction of optical nerve and cornea, and stained with H&E.

CC(=O)OCC(=O)[C@@]1(O)[C@H](C)C[C@H]2[C@@H]3C=C(C)C4=Cc5c(cnn5-c5ccccc5)C[C@]4(C)[C@H]3[C@@H](O)C[C@@]21C [Cortivazol]
Relative Potency of Glucocorticoid [1]: 50

C[C@@H]1C[C@H]2[C@@H]3CCC4=CC(=O)C=C[C@]4(C)[C@@]3(F)[C@@H](O)C[C@]2(C)[C@@]1(O)C(=O)COP(=O)(O)O [DSP, Dexamethasone 21-phosphate sodium salt]
DSP level in blood ([2]; PO 2 h, SC injection): ≤ 350 ng DSP per ml
total dose retained at the conjunctiva tissue ([2]; PO 2 h, single SC injection, ~0.08 mg DSP): Approximately 0.4%
DSP in anterior chamber and vitreous ([2]; PO 7 day after SC administration): not detectable
DSP at the conjunctiva tissue ([2]; PO day 1, single SC injection): almost no DSP can be detected
DSP levels at retina and cornea ([2]; SC injection): very low
time to clearance after SC injection ([2]; rat, in vivo, sc): up to 2 hours
survival rate of cornea grafts ([3]; PO 2 week): 100%
survival rate of cornea grafts ([3]; PO 3 week): 80%
histological examination of cornea tissues at end point ([3]; PO 4 week for DSP, PO 9 week for DSP-NP): swollen and thicker than the normal healthy cornea
time at which all grafts were rejected ([3]; PO, weekly SC injection): 4 week
cornea transparency (clinical observation) ([3]; weekly SC injection): as opaque as saline control and NP control groups
graft neovascularization (clinical observation) ([3]; weekly SC injection, versus control groups): less neovascularization
graft edema (clinical observation) ([3]; weekly SC injection, versus saline and NP control): significant less edema

C[C@]12CCC(=O)C=C1CC[C@@H]1[C@@H]2[C@@H](O)C[C@@]2(C)[C@H]1CC[C@]2(O)C(=O)CO [Hydrocortisone]
Relative Potency of Glucocorticoid [1]: 1

C[C@]12C=CC(=O)C=C1CC[C@@H]1[C@@H]2[C@@H](O)C[C@@]2(C)[C@H]1CC[C@]2(O)C(=O)CO [Prednisolone]
Relative Potency of Glucocorticoid [1]: 4

C[C@]12C=CC(=O)C=C1CC[C@H]1[C@@H]3C[C@@H](O)[C@](O)(C(=O)CO)[C@@]3(C)C[C@H](O)[C@@]12F [Triamcinolone]
Relative Potency of Glucocorticoid [1]: 5
